In the assay the target is T1, Amine oxidase [flavin-containing] A (Rattus norvegicus, UniProt P21396).
T1 sequence (P21396 whole entry): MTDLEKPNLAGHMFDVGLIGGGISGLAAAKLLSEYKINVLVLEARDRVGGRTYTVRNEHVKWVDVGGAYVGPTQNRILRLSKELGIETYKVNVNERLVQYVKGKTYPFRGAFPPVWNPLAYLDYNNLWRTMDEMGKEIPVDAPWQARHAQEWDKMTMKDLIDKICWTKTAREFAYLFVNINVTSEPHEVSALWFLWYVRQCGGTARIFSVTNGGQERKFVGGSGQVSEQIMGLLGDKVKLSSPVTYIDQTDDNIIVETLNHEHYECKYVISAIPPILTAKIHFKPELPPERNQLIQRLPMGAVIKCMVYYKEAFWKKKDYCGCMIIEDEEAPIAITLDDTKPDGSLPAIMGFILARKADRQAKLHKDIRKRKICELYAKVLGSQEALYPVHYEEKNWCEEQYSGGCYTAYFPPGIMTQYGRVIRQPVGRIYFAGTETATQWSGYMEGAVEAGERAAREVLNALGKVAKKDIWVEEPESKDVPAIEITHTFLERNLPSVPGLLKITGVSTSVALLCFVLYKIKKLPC
In words: Inhibition of Sprague-Dawley rat MAO-A.

SMILES strings stand for the structures.

Consider `C[C@H](NCc1ccc(OCc2cccc(F)c2)cc1)C(N)=O` [SAFINAMIDE], for which it took 2800 nM to reach half-maximal inhibition (IC50).

The values are drawn from ChEMBL document CHEMBL5143679, “Discovery of 3, 6-disubstituted isobenzofuran-1(3H)-ones as novel inhibitors of monoamine oxidases” (Bioorg Med Chem Lett, 2022).
